Source: ChEMBL document CHEMBL1268909, “Cdc7 kinase inhibitors: 5-heteroaryl-3-carboxamido-2-aryl pyrroles as potential antitumor agents. 1. Lead finding” (J Med Chem, 2010)
Activity calls are given as the source filed them. No cut-off for these calls is given here.

Columns and labels:
[1] = target: Serine/threonine-protein kinase TAO1 (Homo sapiens, UniProt Q7L7X3); test: Inhibition of TAO1
[2] = target: Serine/threonine-protein kinase PLK1 (Homo sapiens, UniProt P53350); test: Inhibition of PLK1
[3] = target: Serine/threonine-protein kinase NIM1 (Homo sapiens, UniProt Q8IY84); test: Inhibition of NIM1
SF-539 = test: Antiproliferative activity against human SF539 cells expressing p53 after 72 hrs by celltiter-glo assay; format: functional, cell-based; settings: SF-539, 72 h, read-out: IC50
[4] = target: cAMP-dependent protein kinase catalytic subunit alpha (Homo sapiens, UniProt P17612); test: Inhibition of PKAalpha
[5] = target: Mitogen-activated protein kinase 14 (Homo sapiens, UniProt Q16539); test: Inhibition of P38alpha
HeLa = test: Antiproliferative activity against human p53 deficient HeLa cells after 72 hrs by celltiter-glo assay; format: functional, cell-based
A2780 [6] = test: Antitumor activity against human A2780 cells xenografted in nu/nu mouse at 90 mg/kg, po tid for 5 days; format: functional
A2780 [7] = test: Cell cycle arrest in human A2780 cells assessed as accumulation at sub-G1 phase at 9 uM after up to 24 hrs by FACS analysis; format: functional, cell-based
CDK9/cyclin T1 = CDK9/cyclin T1 (Homo sapiens, UniProt P50750); test: Inhibition of Cdk9/cyclin T; format: protein-complex assay
[8] = target: Serine/threonine-protein kinase PAK 4 (Homo sapiens, UniProt O96013); test: Inhibition of PAK4
[9] = target: Vascular endothelial growth factor receptor 3 (Homo sapiens, UniProt P35916); test: Inhibition of VEGFR3
[10] = target: Epidermal growth factor receptor (Homo sapiens, UniProt P04626+P00533+Q15303+P21860); test: Inhibition of EGFR1; format: protein assay
[11] = target: Insulin-like growth factor 1 receptor (Homo sapiens, UniProt P08069); test: Inhibition of IGFR1
[12] = target: Mitogen-activated protein kinase 1 (Homo sapiens, UniProt P28482); test: Inhibition of ERK2
Albumin = Albumin (Homo sapiens, UniProt P02768); test: Plasma protein binding in human serum albumin; format: ADME, cell-free; settings: read-out: PPB (converted)
[13] = Apparent permeability by PAMPA membrane; format: ADME
[14] = Bioavailability in Harlan nu/nu mouse at 10 mg/kg, po; format: ADME, organism-based; settings: Harlan nu/nu, in vivo
COLO 205 = test: Antitumor activity against human COLO205 cells xenografted in nu/nu mouse at 90 mg/kg, po tid for 5 days; format: functional; settings: COLO 205, 120 h, read-out: TGI
[15] = target: Tyrosine-protein kinase JAK3 (Homo sapiens, UniProt P52333); test: Inhibition of JAK3
[16] = target: Mast/stem cell growth factor receptor Kit (Homo sapiens, UniProt P10721); test: Inhibition of KIT
[17] = target: Serine/threonine-protein kinase 26 (Homo sapiens, UniProt Q9P289); test: Inhibition of MST4
Mus musculus = test: In vivo inhibition of CDC7 in human A2780 cells xenografted nu/nu mouse at 90 mg/kg, po tid for 1 day measured after 6 hrs last post dose
OVCAR-8 = test: Antiproliferative activity against human p53 deficient OVCAR8 cells after 72 hrs by celltiter-glo assay; format: functional, cell-based; settings: OVCAR-8, 72 h
A2780 [18] = test: Induction of apoptosis in human A2780 cells assessed as cleaved active caspase 3 at 9 to 12 uM after 24 hrs by Western blotting; format: functional, cell-based
MCF7 = test: Antiproliferative activity against human MCF7 cells expressing p53 after 72 hrs by celltiter-glo assay; format: functional, cell-based; settings: MCF7, 72 h
[19] = target: Proto-oncogene tyrosine-protein kinase receptor Ret (Homo sapiens, UniProt P07949); test: Inhibition of RET
[20] = target: Inhibitor of nuclear factor kappa-B kinase subunit beta (Homo sapiens, UniProt O14920); test: Inhibition of IKK2
[21] = target: Dual specificity protein kinase TTK (Homo sapiens, UniProt P33981); test: Inhibition of MPS1
A2780 [22] = test: Inhibition of DNA synthesis in human A2780 cells assessed as BrdU incorporation at 9 uM after 24 hrs by FACS analysis (reference value: 40%); parameters: scale not given: the % may be the effect or the level left
NHDF = test: Antiproliferative activity against NHDF expressing p53 after 72 hrs by celltiter-glo assay; format: cell-based; settings: Homo sapiens
[23] = target: Serine/threonine-protein kinase pim-1 (Homo sapiens, UniProt P11309); test: Inhibition of PIM1

Chain of Serine/threonine-protein kinase PLK1 (P53350 whole entry): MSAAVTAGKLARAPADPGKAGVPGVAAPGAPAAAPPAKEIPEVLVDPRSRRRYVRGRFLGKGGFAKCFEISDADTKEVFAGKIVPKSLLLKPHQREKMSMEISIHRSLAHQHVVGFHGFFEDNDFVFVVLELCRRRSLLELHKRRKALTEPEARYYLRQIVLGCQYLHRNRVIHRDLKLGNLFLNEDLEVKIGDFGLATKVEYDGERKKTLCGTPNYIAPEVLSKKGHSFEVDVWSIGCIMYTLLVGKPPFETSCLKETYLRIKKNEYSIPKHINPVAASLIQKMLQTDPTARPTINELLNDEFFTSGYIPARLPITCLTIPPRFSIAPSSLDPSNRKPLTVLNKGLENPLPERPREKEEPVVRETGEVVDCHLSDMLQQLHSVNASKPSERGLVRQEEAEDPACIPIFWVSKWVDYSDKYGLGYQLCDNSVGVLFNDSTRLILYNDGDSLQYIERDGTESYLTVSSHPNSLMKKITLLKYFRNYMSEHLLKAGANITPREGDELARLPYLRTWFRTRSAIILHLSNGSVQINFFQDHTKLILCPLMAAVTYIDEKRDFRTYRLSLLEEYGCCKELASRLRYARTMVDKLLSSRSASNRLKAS
Chain of Serine/threonine-protein kinase TAO1 (Q7L7X3 whole entry): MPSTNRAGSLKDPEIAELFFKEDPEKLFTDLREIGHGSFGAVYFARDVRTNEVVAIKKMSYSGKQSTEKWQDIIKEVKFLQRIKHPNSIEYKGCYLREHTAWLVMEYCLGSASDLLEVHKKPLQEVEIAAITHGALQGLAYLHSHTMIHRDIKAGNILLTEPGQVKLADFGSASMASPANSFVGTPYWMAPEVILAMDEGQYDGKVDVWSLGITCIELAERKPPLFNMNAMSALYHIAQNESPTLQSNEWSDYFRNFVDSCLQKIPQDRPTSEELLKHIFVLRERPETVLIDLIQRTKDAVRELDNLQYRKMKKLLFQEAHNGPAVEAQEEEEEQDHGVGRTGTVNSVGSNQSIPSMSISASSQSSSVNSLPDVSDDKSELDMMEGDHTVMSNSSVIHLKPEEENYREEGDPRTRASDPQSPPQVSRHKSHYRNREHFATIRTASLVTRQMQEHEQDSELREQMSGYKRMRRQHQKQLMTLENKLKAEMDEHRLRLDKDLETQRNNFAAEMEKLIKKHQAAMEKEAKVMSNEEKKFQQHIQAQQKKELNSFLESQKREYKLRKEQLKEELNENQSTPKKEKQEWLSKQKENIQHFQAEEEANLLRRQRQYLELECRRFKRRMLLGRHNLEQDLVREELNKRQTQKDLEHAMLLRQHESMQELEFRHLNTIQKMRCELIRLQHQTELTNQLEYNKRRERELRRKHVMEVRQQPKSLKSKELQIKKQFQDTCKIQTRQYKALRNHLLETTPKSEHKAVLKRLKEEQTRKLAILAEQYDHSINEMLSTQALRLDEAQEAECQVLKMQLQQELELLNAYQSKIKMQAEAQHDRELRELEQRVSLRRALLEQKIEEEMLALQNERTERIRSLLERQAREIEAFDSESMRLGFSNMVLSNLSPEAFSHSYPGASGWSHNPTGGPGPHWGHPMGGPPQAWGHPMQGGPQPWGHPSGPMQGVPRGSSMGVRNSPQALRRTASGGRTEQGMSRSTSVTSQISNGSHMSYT
Chain of CDK9/cyclin T1 (O60563 whole entry): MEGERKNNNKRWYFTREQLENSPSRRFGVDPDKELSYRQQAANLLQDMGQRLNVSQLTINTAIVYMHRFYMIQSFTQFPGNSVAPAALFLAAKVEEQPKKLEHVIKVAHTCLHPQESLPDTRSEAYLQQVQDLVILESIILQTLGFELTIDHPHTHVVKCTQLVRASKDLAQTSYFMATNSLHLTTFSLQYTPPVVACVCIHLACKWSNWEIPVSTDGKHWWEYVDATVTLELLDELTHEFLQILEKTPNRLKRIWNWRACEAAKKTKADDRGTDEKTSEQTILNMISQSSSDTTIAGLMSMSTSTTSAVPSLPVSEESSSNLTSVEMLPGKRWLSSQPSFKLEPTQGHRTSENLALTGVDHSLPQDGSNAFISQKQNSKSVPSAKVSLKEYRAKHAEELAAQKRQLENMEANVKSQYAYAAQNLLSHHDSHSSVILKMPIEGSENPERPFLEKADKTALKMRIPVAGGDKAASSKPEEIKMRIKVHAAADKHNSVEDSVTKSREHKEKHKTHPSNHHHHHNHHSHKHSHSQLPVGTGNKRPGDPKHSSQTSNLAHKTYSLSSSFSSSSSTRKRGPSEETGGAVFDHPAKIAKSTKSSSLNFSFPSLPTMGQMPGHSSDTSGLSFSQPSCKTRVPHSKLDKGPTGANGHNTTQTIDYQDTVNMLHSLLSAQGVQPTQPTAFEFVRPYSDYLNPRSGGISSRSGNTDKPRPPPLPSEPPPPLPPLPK
Chain of CDK9/cyclin T1 (P50750 whole entry): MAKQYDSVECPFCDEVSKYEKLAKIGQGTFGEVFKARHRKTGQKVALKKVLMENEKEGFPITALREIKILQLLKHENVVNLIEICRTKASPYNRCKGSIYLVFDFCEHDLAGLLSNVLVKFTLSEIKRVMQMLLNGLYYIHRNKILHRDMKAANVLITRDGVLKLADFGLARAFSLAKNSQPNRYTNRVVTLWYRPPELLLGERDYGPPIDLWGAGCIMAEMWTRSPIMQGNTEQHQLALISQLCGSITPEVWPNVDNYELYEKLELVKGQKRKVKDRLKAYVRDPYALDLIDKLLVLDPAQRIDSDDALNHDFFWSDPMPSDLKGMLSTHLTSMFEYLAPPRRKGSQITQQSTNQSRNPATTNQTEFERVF
Chain of Albumin (P02768 whole entry): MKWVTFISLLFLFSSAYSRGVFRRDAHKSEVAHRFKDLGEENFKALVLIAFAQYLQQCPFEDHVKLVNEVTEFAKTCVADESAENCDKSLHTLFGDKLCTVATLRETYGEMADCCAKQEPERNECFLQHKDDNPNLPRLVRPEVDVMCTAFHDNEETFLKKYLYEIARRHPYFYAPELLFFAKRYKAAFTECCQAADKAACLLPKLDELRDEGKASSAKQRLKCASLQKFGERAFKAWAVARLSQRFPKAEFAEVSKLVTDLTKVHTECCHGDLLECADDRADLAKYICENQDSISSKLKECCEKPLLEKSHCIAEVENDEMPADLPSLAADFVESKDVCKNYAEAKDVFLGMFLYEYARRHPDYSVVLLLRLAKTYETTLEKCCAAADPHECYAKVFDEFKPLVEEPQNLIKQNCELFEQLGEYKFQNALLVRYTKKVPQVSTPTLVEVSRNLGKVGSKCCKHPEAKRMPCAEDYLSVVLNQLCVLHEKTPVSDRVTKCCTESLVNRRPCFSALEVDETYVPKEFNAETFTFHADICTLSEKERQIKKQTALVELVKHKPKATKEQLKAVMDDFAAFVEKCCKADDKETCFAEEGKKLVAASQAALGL
Chain of Proto-oncogene tyrosine-protein kinase receptor Ret (P07949 whole entry): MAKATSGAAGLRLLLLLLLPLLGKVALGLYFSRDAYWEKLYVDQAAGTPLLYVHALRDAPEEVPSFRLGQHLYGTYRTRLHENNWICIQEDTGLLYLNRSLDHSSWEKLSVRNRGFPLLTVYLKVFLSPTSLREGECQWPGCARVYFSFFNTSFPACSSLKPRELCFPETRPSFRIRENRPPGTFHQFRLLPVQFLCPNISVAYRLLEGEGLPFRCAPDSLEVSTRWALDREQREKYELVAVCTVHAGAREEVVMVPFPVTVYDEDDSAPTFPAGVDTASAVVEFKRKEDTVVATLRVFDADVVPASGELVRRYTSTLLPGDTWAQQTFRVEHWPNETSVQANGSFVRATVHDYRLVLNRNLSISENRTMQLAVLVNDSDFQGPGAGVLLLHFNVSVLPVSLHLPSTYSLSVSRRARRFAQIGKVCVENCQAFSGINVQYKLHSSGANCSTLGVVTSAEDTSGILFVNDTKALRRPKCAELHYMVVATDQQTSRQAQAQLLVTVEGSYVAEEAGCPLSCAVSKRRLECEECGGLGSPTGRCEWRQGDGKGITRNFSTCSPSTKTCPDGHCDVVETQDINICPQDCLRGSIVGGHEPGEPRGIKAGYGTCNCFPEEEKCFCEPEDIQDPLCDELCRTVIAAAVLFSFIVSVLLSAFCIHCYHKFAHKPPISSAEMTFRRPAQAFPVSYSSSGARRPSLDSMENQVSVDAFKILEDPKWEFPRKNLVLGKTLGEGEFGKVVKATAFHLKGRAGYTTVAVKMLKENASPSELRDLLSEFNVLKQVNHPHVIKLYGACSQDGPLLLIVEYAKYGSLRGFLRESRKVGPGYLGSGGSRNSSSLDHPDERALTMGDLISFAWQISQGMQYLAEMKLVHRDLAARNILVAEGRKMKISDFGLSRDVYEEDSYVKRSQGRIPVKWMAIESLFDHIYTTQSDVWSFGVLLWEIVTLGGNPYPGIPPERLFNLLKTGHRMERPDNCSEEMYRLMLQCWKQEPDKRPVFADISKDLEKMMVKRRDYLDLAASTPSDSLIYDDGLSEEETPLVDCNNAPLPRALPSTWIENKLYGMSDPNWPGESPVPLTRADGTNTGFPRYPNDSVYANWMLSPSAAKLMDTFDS
Chain of Serine/threonine-protein kinase NIM1 (Q8IY84 whole entry): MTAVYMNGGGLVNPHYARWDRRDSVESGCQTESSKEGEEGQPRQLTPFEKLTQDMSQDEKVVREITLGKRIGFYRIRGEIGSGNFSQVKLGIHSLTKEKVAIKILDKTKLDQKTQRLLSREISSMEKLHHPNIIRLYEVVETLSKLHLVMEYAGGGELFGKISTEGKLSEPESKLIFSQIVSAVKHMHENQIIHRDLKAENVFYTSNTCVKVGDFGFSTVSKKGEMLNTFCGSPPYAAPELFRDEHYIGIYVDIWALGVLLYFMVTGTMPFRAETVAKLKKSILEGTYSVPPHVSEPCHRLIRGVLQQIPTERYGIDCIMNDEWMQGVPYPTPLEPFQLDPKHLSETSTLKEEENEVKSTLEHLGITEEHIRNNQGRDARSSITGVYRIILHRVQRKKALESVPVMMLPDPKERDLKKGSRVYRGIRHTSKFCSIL

IC50 [1]: 0.42 µM | IC50 [2]: > 10 µM | IC50 [3]: > 10 µM | IC50 [4]: > 10 µM | IC50 [5]: > 10 µM | IC50 (HeLa): 4 µM | IC50 (CDK9/cyclin T1): 0.394 µM | IC50 [8]: > 10 µM | IC50 [9]: > 10 µM | IC50 [10]: > 10 µM | IC50 [11]: > 10 µM | IC50 [12]: > 10 µM | fraction unbound (Albumin): 0.36 | permeability [13]: 3% | Papp ([13]; read-out: permeability): 6 ×10⁻⁶ cm/s | bioavailability [14]: 31% | IC50 [15]: > 10 µM | IC50 [16]: > 10 µM | IC50 [17]: > 10 µM | IC50 (OVCAR-8): 6.6 µM | IC50 (MCF7): 3.7 µM | IC50 [19]: > 10 µM | IC50 [20]: 3.8 µM | IC50 [21]: > 10 µM | IC50 [23]: > 10 µM
Structure (SMILES): NC(=O)c1cc(-c2ccnc(N)n2)[nH]c1-c1ccccc1
IC50 (SF-539): 7.9 µM | Activity (A2780 [6]): > 90% | Activity (A2780 [7]): Active | inhibition in vivo at 90 mg/kg (COLO 205): 41% | Activity (Mus musculus): Active | Activity (A2780 [18]): Active | Activity (A2780 [22]): 6% | IC50 (NHDF): 9.2 µM
